The results in this text go back to patent US20220089575A1, “FARNESOID X RECEPTOR AGONISTS AND USES THEREOF” (Metacrine, Inc., priority 2017, published 2022).

pEC50: −log10 of the molar value. Some results are limits rather than exact numbers.

The assay deals with T1, hFXR (Homo sapiens, UniProt Q96RI1).
T1 construct: expressed in transfected cells; host or cells: CV-1 cells
T1 sequence (Q96RI1 1-486): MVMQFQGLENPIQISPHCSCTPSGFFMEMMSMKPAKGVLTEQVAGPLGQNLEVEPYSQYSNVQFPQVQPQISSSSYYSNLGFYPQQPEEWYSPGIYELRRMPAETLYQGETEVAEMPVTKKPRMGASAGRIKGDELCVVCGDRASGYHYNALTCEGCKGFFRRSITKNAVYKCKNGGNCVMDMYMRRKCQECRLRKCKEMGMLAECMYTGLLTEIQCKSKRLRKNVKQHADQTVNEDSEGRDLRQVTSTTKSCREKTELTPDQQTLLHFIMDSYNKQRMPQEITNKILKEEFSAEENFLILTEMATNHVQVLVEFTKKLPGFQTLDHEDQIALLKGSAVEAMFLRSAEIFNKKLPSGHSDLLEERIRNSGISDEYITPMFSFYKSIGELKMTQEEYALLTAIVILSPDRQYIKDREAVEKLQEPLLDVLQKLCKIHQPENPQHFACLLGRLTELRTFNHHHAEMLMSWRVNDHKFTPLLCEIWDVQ
T1 sequence (P19793 1-462 partner): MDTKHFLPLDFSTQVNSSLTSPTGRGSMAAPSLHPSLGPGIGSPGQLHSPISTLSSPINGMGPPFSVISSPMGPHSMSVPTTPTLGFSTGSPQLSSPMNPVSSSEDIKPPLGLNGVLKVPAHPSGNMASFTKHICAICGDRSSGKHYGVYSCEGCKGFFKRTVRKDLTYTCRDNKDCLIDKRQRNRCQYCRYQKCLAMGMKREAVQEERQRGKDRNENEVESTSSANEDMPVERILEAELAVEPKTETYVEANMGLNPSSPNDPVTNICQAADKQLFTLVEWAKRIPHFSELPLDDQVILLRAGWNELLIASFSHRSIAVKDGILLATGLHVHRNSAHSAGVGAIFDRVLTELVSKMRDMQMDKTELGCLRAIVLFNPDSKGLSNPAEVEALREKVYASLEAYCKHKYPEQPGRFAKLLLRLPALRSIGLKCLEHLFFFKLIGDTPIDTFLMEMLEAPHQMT
As to the kind of experiment: In Vitro FXR Assay (TK): TK-ECRE-luc reporter in transfected CV-1 cells. The format is cell-based. As to conditions: 18 hrs, luminescence, maximum efficacy of <25% of the Fexarmine control classified as '+'. The essentials: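 CV-1, transient co-transfection: hFXR + hRXR + TK-ECRE-luc + pCMX-YFP; charcoal-stripped serum. 18 h post-transfection, DMSO serial dilutions of cpd added; 18 h incubation; lysis, luminescence.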

Usually pEC50 stands for the EC50 on a negative log10 scale, so that one unit is a factor of ten. Low values mean a high EC50, high ones a low EC50. `CCN(CCO)C(=O)O[C@H]1CC[C@H](C(=O)N(C[C@H]2CC[C@H](c3ccc(OC)c(C)n3)CC2)c2cc(-c3coc(C4CC4)n3)ccn2)CC1` [Compound 6.74, trans-4-((4-(2-Cyclopropyloxazol-4-yl)pyridin-2-yl)((trans-4-(5-methoxy-6-methylpyridin-2-yl)cyclohexyl)methyl)carbamoyl)cyclohexyl ethyl(2-hydroxyethyl)carbamate] had a pEC50 of at least 6.60.

`COc1ccc([C@H]2CC[C@H](CN(c3cccc(-c4cnn(C5CC5)c4)c3)C(=O)[C@H]3CC[C@H](OC(=O)N4CCOCC4)CC3)CC2)cc1C` [Compound 4.07, trans-4-((3-(1-Cyclopropyl-1H-pyrazol-4-yl)phenyl)((trans-4-(4-methoxy-3-methylphenyl)cyclohexyl)methyl)carbamoyl)cyclohexyl morpholine-4-carboxylate] showed a pEC50 of at least 6.60.

In the case of `COc1ccc([C@H]2CC[C@H](CN(c3cc(-c4coc(C5CC5)n4)ccn3)C(=O)[C@H]3CC[C@H](CNC(=O)C4CCC4)CC3)CC2)nc1C` [Compound 30.04, trans-4-(Cyclobutanecarboxamidomethyl)-N-(4-(2-cyclopropyloxazol-4-yl)pyridin-2-yl)-N-((trans-4-(5-methoxy-6-methylpyridin-2-yl)cyclohexyl)methyl) cyclohexanecarboxamide], the pEC50 was at least 6.60.

Turning to `COc1ccc([C@H]2CC[C@H](CN(c3cccc(-c4cnn(C5CC5)c4)c3)C(=O)[C@H]3CC[C@H](NC(=O)CO)CC3)CC2)cc1C` [Compound 26.03, trans-N-(3-(1-Cyclopropyl-1H-pyrazol-4-yl)phenyl)-4-(2-hydroxyacetamido)-N-((trans-4-(4-methoxy-3-methylphenyl)cyclohexyl)methyl) cyclohexanecarboxamide], the pEC50 was at least 6.60.

Turning to `COc1ccc([C@H]2CC[C@H](CN(c3cc(-c4cnn(C5CC5)c4)ccn3)C(=O)[C@H]3CC[C@H](CC(=O)O)CC3)CC2)cc1C` [Compound 20.10, 2-(trans-4-((4-(1-Cyclopropyl-1H-pyrazol-4-yl)pyridin-2-yl)((trans-4-(4-methoxy-3-methylphenyl)cyclohexyl)methyl)carbamoyl)cyclohexyl)acetic acid], the pEC50 is at least 6.60.

As for `CCOC(=O)NC[C@H]1CC[C@H](C(=O)N(C[C@H]2CC[C@H](c3ccc(OC)c(C)n3)CC2)c2cc(-c3coc(C4CC4)n3)ccn2)CC1` [Compound 26.28], the pEC50 is at least 6.60.

Molecule `COc1ncc([C@H]2CC[C@H](CN(c3cc(-c4coc(C5CC5)n4)ccn3)C(=O)[C@H]3CC[C@H](OC(=O)N4CC(OC)C4)CC3)CC2)cc1C` [Compound 7.93, trans-4-((4-(2-Cyclopropyloxazol-4-yl)pyridine-2-yl)((trans-4-(6-methoxy-5-methylpyridin-3-yl)cyclohexyl)methyl)carbamoyl)cyclohexyl 3-methoxyazetidine-1-carboxylate] showed a pEC50 of at least 6.60.

`CN(C)c1ccc([C@H]2CC[C@H](CN(c3cccc(-c4coc(C5CC5)n4)c3)C(=O)[C@H]3CC[C@H](C(=O)O)CC3)CC2)cn1` [Compound 18.04, trans-4-((3-(2-Cyclopropyloxazol-4-yl)phenyl)((trans-4-(6-(dimethylamino)pyridine-3-yl)cyclohexyl)methyl)carbamoyl) cyclohexanecarboxylic acid] showed a pEC50 of at least 6.60.

Regarding `COc1ccc(C23CCC(CN(c4cccc(-c5cnn(C6CC6)c5)c4)C(=O)[C@H]4CC[C@H](NC(=O)COC(C)=O)CC4)(CC2)CC3)cc1C` [Compound 26.08, 2-((4-((3-(1-Cyclopropyl-1H-pyrazol-4-yl)phenyl)((4-(4-methoxy-3-methylphenyl)bicyclo[2.2.2]octan-1-yl)methyl)carbamoyl)cyclohexyl)amino)-2-oxoethyl trans-acetate], the pEC50 was at least 6.60.

Take `COc1ccc([C@H]2CC[C@H](CN(c3cc(-c4coc(C5CC5)n4)ccn3)C(=O)[C@H]3CC[C@H](OC(=O)N4CC(C(C)(C)C)C4)CC3)CC2)nc1C` [Compound 7.103, trans-4-((4-(2-Cyclopropyloxazol-4-yl)pyridine-2-yl)((trans-4-(5-methoxy-6-methylpyridin-2-yl)cyclohexyl)methyl)carbamoyl)cyclohexyl 3-(tert-butyl)azetidine-1-carboxylate]: the pEC50 is at least 6.60.

Turning to `COc1ccc([C@H]2CC[C@H](CN(c3cc(-c4coc(C5CC5)n4)ccn3)C(=O)[C@H]3CC[C@H](OC(=O)N[C@H](C)CO)CC3)CC2)nc1C` [Compound 6.94, trans-4-((4-(2-Cyclopropyloxazol-4-yl)pyridin-2-yl)((trans-4-(5-methoxy-6-methylpyridin-2-yl)cyclohexyl)methyl)carbamoyl)cyclohexyl ((R)-1-hydroxypropan-2-yl)carbamate], the pEC50 is at least 6.60.

The molecule `CNC(=O)O[C@H]1CC[C@H](C(=O)N(C[C@H]2CC[C@H](c3ccc(N(C)C)nc3)CC2)c2cccc(-c3cnn(C4CC4)c3)c2)CC1` [Compound 5.09, trans-4-((3-(1-Cyclopropyl-1H-pyrazol-4-yl)phenyl)((trans-4-(6-(dimethylamino)pyridin-3-yl)cyclohexyl)methyl)carbamoyl)cyclohexyl methylcarbamate] showed a pEC50 of at least 6.60.

`COc1ccc([C@H]2CC[C@H](CN(c3cc(-c4cnn(C5CC5)c4)ccn3)C(=O)[C@H]3CC[C@H](OC(=O)NCCO)CC3)CC2)cc1C` [Compound 4.19, trans-4-((4-(1-Cyclopropyl-1H-pyrazol-4-yl)pyridin-2-yl)((trans-4-(4-methoxy-3-methylphenyl)cyclohexyl)methyl)carbamoyl)cyclohexyl (2-hydroxyethyl)carbamate] had a pEC50 of at least 6.60.

In turn, `COc1ccc([C@H]2CC[C@H](CN(c3cccc(-c4cnn(C(C)C)c4)c3)C(=O)[C@H]3CC[C@H](NC(=O)CO)CC3)CC2)cc1C` [Compound 26.12, trans-4-(2-Hydroxyacetamido)-N-(3-(1-isopropyl-1H-pyrazol-4-yl)phenyl)-N-((trans-4-(4-methoxy-3-methylphenyl)cyclohexyl)methyl) cyclohexanecarboxamide] gave a pEC50 of at least 6.60.

`COC(=O)N[C@H]1CC[C@H](C(=O)N(C[C@H]2CC[C@H](c3ccc(OC)c(C)n3)CC2)c2cc(-c3coc(C4CC4)n3)ccn2)CC1` [Compound 26.21, Methyl (trans-4-((4-(2-cyclopropyloxazol-4-yl)pyridine-2-yl)((trans-4-(5-methoxy-6-methylpyridin-2-yl)cyclohexyl)methyl)carbamoyl)cyclohexyl)carbamate] showed a pEC50 of at least 6.60.

`COc1ccc([C@H]2CC[C@H](CN(c3cc(-c4coc(C5CC5)n4)ccn3)C(=O)[C@H]3CC[C@H](CNS(C)(=O)=O)CC3)CC2)nc1C` [Compound 26.26, trans-N-(4-(2-Cyclopropyloxazol-4-yl)pyridin-2-yl)-N-((trans-4-(5-methoxy-6-methylpyridin-2-yl)cyclohexyl)methyl)-4-(methylsulfonamidomethyl) cyclohexanecarboxamide] showed a pEC50 of at least 6.60.

For `COc1ccc([C@H]2CC[C@H](CN(c3cc(-c4coc(C5CC5)n4)ccn3)C(=O)[C@H]3CC[C@H](OC(=O)N4CC(C(C)C)C4)CC3)CC2)nc1C` [Compound 7.102, trans-4-((4-(2-Cyclopropyloxazol-4-yl)pyridine-2-yl)((trans-4-(5-methoxy-6-methylpyridin-2-yl)cyclohexyl)methyl)carbamoyl)cyclohexyl 3-isopropylazetidine-1-carboxylate], the pEC50 is at least 6.60.
